This is an account of results in PubChem BioAssay (NCI).

Among the test systems are CCRF-CEM leukemia; OVCAR-8 ovarian; RXF 393 renal; LOX IMVI melanoma; NCI-H460 lung; HCT-116 colon; OVCAR-4 ovarian; SNB-75 CNS; NCI-H226 lung; SNB-19 CNS.
Assay in all cases: growth of human tumour cells (NCI), 48 h

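All cell lines were grown in 96-well plates and treated with compound for 48 hours. Abbreviation: GI50, concentration required for 50% inhibition of growth. TGI is the concentration that stops growth completely.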

Regarding `COc1cc2c(cc1OCCCOc1ccc(-c3nc4ccc(N5CCN(C)CC5)cc4[nH]3)cc1)N=C[C@@H]1CCCN1C2=O`, the GI50 in the assay on CCRF-CEM leukemia, with OVCAR-8 ovarian, in the assay with RXF 393 renal, in the assay on LOX IMVI melanoma, with NCI-H460 lung and in the assay on HCT-116 colon was below 0.01 µM each time. Further, the GI50 in the assay with OVCAR-4 ovarian, in the assay with SNB-75 CNS, with NCI-H226 lung and with SNB-19 CNS was below 0.01 µM throughout. Besides, the TGI is 2.33 µM in the assay on CCRF-CEM leukemia; below 0.01 µM with OVCAR-8 ovarian; below 0.01 µM in the assay with RXF 393 renal; 1.58 µM in the assay with LOX IMVI melanoma; below 0.0505 µM in the assay on NCI-H460 lung; above 37 µM in the assay with HCT-116 colon. Further, the TGI with OVCAR-4 ovarian was 17.2 µM; in the assay on SNB-75 CNS it was 11.8 µM; in the assay on NCI-H226 lung, below 0.01 µM; in the assay with SNB-19 CNS, 17.1 µM.
`CN(C)CN(C)c1nc(N(C)C)nc(N(C)CN(C)C)n1`: the TGI in the assay with CCRF-CEM leukemia is 61.1 µM; with OVCAR-8 ovarian, above 100 µM; in the assay on RXF 393 renal, 38.9 µM; in the assay with LOX IMVI melanoma, 55.1 µM; in the assay on NCI-H460 lung it was above 100 µM; in the assay on HCT-116 colon, above 100 µM. In addition, the TGI in the assay on OVCAR-4 ovarian, in the assay with SNB-75 CNS, in the assay with NCI-H226 lung and with SNB-19 CNS was above 100 µM each time.
Turning to `Nc1nc(N)c2c(n1)NC(c1sc(Cl)nc1Cl)CC(c1ccc3c(c1)OCO3)=N2` (stereo not drawn), the GI50 in the assay on CCRF-CEM leukemia was 3.02 µM; in the assay with OVCAR-8 ovarian, 4.86 µM; in the assay with RXF 393 renal, 1.4 µM; with LOX IMVI melanoma, 7.02 µM; in the assay on NCI-H460 lung, 3.99 µM; in the assay on HCT-116 colon, 3.42 µM. The GI50 with SNB-75 CNS was 1.39 µM; in the assay with NCI-H226 lung it was 17.7 µM; with SNB-19 CNS, 4.83 µM. Moreover, the TGI stood at 27 µM in the assay with CCRF-CEM leukemia; 46.9 µM in the assay with OVCAR-8 ovarian; 6.61 µM with RXF 393 renal; 25.5 µM in the assay with LOX IMVI melanoma; 18.1 µM in the assay with NCI-H460 lung; 16.2 µM in the assay with HCT-116 colon. The figures for the TGI in the assay on SNB-75 CNS, in the assay on NCI-H226 lung and in the assay with SNB-19 CNS were 7.55 µM, 55.7 µM and 48.2 µM, respectively.
`COc1cc(C(C#N)NNc2nc(C)cc(=O)[nH]2)cc(OC)c1OC` (stereo not drawn): the TGI with CCRF-CEM leukemia, in the assay on OVCAR-8 ovarian, with RXF 393 renal, in the assay on LOX IMVI melanoma, in the assay on NCI-H460 lung and with HCT-116 colon was above 100 µM throughout. Also, the TGI in the assay on OVCAR-4 ovarian, with SNB-75 CNS and in the assay with NCI-H226 lung was above 100 µM throughout.
`O=c1c2ccccc2nc(-c2ccccc2)n1NC(=S)Nc1cccc(Cl)c1`: the TGI with CCRF-CEM leukemia was above 100 µM; in the assay with OVCAR-8 ovarian, above 100 µM; in the assay with RXF 393 renal, 67.1 µM; with LOX IMVI melanoma, above 100 µM; in the assay with NCI-H460 lung it was above 100 µM; with HCT-116 colon it was above 100 µM. Besides, the TGI in the assay with OVCAR-4 ovarian was above 100 µM; in the assay with SNB-75 CNS, 59.6 µM; with NCI-H226 lung, above 100 µM.
As to `CNC(c1ccncc1)C(NC)c1ccncc1` (stereo not drawn), the TGI in the assay on CCRF-CEM leukemia, in the assay on OVCAR-8 ovarian, in the assay with RXF 393 renal, in the assay with LOX IMVI melanoma, in the assay with HCT-116 colon and in the assay with OVCAR-4 ovarian was above 100 µM in each case. Also, the TGI in the assay on SNB-75 CNS, with NCI-H226 lung and with SNB-19 CNS was above 100 µM throughout.
As to `CCCOC(=O)C1C2CCC(O2)C1C(=O)O` (stereo not drawn), the TGI with CCRF-CEM leukemia, with OVCAR-8 ovarian, in the assay with RXF 393 renal, in the assay on LOX IMVI melanoma, in the assay on HCT-116 colon and in the assay with OVCAR-4 ovarian was above 100 µM throughout. The TGI in the assay with SNB-75 CNS, in the assay on NCI-H226 lung and in the assay on SNB-19 CNS was above 100 µM each time.
Take `COc1ccc(C)cc1C1CCC(=O)O1` (stereo not drawn): the TGI in the assay on CCRF-CEM leukemia, with OVCAR-8 ovarian, in the assay on RXF 393 renal, with LOX IMVI melanoma, with NCI-H460 lung and with HCT-116 colon was above 100 µM in each case. In addition, the TGI in the assay on SNB-75 CNS, with NCI-H226 lung and in the assay on SNB-19 CNS was above 100 µM in each case.
For the molecule `S=c1c2ccccc2c(=S)n2n1CC=CC2`, the TGI with CCRF-CEM leukemia, in the assay on OVCAR-8 ovarian, in the assay with RXF 393 renal, with LOX IMVI melanoma, in the assay with HCT-116 colon and in the assay on OVCAR-4 ovarian was above 100 µM throughout. The TGI with SNB-75 CNS, in the assay with NCI-H226 lung and in the assay on SNB-19 CNS was above 100 µM in each case.
In the case of `NNC(=O)C(O)C(O)C(=O)NN` (stereo not drawn), the TGI in the assay with CCRF-CEM leukemia, in the assay on OVCAR-8 ovarian, in the assay with RXF 393 renal, in the assay with LOX IMVI melanoma, in the assay on HCT-116 colon and in the assay with OVCAR-4 ovarian was above 100 µM each time. The TGI in the assay with SNB-75 CNS, with NCI-H226 lung and with SNB-19 CNS was above 100 µM in each case.
In the case of `Cc1ccc(/C=N/NS(=O)(=O)c2ccccc2)c(C)c1`, the TGI with CCRF-CEM leukemia, in the assay with OVCAR-8 ovarian, in the assay with RXF 393 renal, with LOX IMVI melanoma, in the assay with NCI-H460 lung and in the assay with HCT-116 colon was above 100 µM throughout. Also, the TGI with OVCAR-4 ovarian, in the assay with SNB-75 CNS and in the assay with NCI-H226 lung was above 100 µM in each case.
As for `O=C(/C=C/c1ccc([N+](=O)[O-])cc1)c1cccc(Nc2nc(Nc3ccccc3)nc(Nc3ccccc3)n2)c1`, the GI50 with CCRF-CEM leukemia was 3.85 µM; in the assay on OVCAR-8 ovarian it was 14 µM; in the assay with RXF 393 renal, 5.99 µM; in the assay with LOX IMVI melanoma it was 11.1 µM; in the assay with NCI-H460 lung, 9.63 µM; in the assay on OVCAR-4 ovarian it was 22.1 µM. Besides, the GI50 in the assay on SNB-75 CNS was 4.52 µM; in the assay with NCI-H226 lung it was 14.4 µM; in the assay on SNB-19 CNS, 79.8 µM. The TGI was 25.6 µM with CCRF-CEM leukemia; above 100 µM in the assay with OVCAR-8 ovarian; 30.1 µM with RXF 393 renal; 44.6 µM in the assay on LOX IMVI melanoma; 38 µM with NCI-H460 lung; above 100 µM in the assay on OVCAR-4 ovarian. The TGI was 94.8 µM with SNB-75 CNS, 44.9 µM with NCI-H226 lung and above 100 µM with SNB-19 CNS.
